Where two headings read alike, the source gives them in different places.
Legend:
Assay type in all cases: cell-based
[1] = system: Staphylococcus aureus; assay: Agar dilution MIC vs Staphylococcus aureus (trypticase soy agar); settings: first screened at 500 ppm
Protocol: (§1) A tube containing 30 ml of trypticase soy agar was melted and warmed to 45° C. The test compound was added to the tube at a concentration of 0.05% (500 ppm). The mixture was stirred and poured into plates to harden. When hardened, the plates were inoculated with various aerobic and anaerobic organisms. The aerobic plates were incubated at 37° C. for 24 hours and then read for bacterial growth. The same plates were again incubated at 30° C. for an additional 48 hours at which point they were checked for yeast and fungal growth. The anaerobic plates were incubated at 37° C. in an anaerobic chamber and read at 48 hours.
(§2) After the initial readings, compounds showing sufficient activity were re-tested at various concentrations to determine the minimum inhibitory concentration (MIC) of the compounds of the invention against various bacteria and fungi.

[2] = system: Streptococcus mutans; assay: Agar dilution MIC vs Streptococcus mutans (trypticase soy agar); settings: first screened at 500 ppm
Protocol: as §1, §2

[3] = system: Streptococcus mutans (ATCC 10449); assay: MIC and MBC vs Streptococcus mutans, Todd Hewitt broth, standard dilution; settings: for MBC: read-out: MBC (minimum bactericidal concentration)
Protocol: In another procedure, the minimum inhibitory concentration (MIC) and minimum bactericidal concentration (MBC) were determined in ppm for various compounds of the invention against the bacteria, Streptococcus mutans (ATCC 10449). The testing was performed using Todd Hewitt broth and standard dilution techniques.

[4] = system: Salmonella typhosa; assay: Agar dilution MIC vs Salmonella typhosa (trypticase soy agar); settings: for MIC: Salmonella enterica, TYPHOSA, read-out: Minimum inhibitory concentration, St, Salmonella typhosa, first screened at 500 ppm; for Minimum inhibitory concentration, St: Salmonella typhosa, first screened at 500 ppm
Protocol: as §1, §2

[5] = system: Escherichia coli; assay: Agar dilution MIC vs Escherichia coli (trypticase soy agar); settings: first screened at 500 ppm; for MIC: read-out: Minimum inhibitory concentration, Ec
Protocol: as §1, §2

[6] = system: Proteus mirabilis; assay: Agar dilution MIC vs Proteus mirabilis (trypticase soy agar); settings: first screened at 500 ppm; for MIC: read-out: Minimum inhibitory concentration, Pm
Protocol: as §1, §2

[7] = system: Bacillus subtilis; assay: Agar dilution MIC vs Bacillus subtilis (trypticase soy agar); settings: first screened at 500 ppm
Protocol: as §1, §2

[8] = system: Aspergillus fumigatus; assay: Agar dilution MIC vs Aspergillus fumigatus (trypticase soy agar); settings: first screened at 500 ppm, read-out: Minimum inhibitory concentration, Af
Protocol: as §1, §2

[9] = system: Trichophyton mentagrophytes; assay: Agar dilution MIC vs Trichophyton mentagrophytes (trypticase soy agar); settings: first screened at 500 ppm
Protocol: as §1, §2

[10] = system: Streptococcus mutans; assay: Acid inhibition in Streptococcus mutans (Trypticase-yeast medium with sucrose, NaOH titration); settings: S. mutans, 48 hours at 37° C.
Protocol: In still another operation, the acid inhibiting property of these compounds was tested against the known acid producing organism, Streptococcus mutans. Test tubes containing Trypticase-yeast medium with sucrose were inoculated with S. mutans and incubated for 48 hours at 37° C. The tubes were then titrated with 0.1 N sodium hydroxide.

[11] = system: Aspergillus niger; assay: Agar dilution MIC vs Aspergillus niger (trypticase soy agar); settings: first screened at 500 ppm, read-out: Minimum inhibitory concentration, An
Protocol: as §1, §2

[12] = system: Candida pelliculosa; assay: Agar dilution MIC vs Candida pelliculosa (trypticase soy agar); settings: Hansenula anomala, first screened at 500 ppm, read-out: Minimum inhibitory concentration, Cp
Protocol: as §1, §2

[13] = Streptococcus mutans ATCC 10449, Todd Hewitt broth
[14] = Streptococcus mutans, ATCC10449, Streptococcus mutans ATCC 10449, Todd Hewitt broth
[15] = Streptococcus mutans ATCC 10449, Todd Hewitt broth, dihydrate
[16] = Streptococcus mutans ATCC 10449, Todd Hewitt broth, monohydrate
[17] = Streptococcus mutans ATCC 10449, Todd Hewitt broth, hemihydrate

SMILES: O=C(c1ccc2c(c1)[I+]c1cc(C(=O)C34CC5CC(CC(C5)C3)C4)ccc1O2)C12CC3CC(CC(C3)C1)C2 (single isomer, unassigned) [5(a)]
- Minimum inhibitory concentration, Sa [1]: 12.5 PPM
- Minimum inhibitory concentration, Sm [2]: 3.12 PPM
- MIC [3, 13]: 3.12 ppm
- MBC [3, 14]: 3.12 µg/mL

SMILES: O=C(c1ccc2c(c1)[I+]c1cc(C(=O)C34CC5CC(CC(C5)C3)C4)ccc1O2)C12CC3CC(CC(C3)C1)C2 (single isomer, unassigned) [5(b)]
- Minimum inhibitory concentration, Sa [1]: 0.78 PPM
- Minimum inhibitory concentration, Sm [2]: 0.78 PPM
- MBC (minimum bactericidal concentration) [3, 13]: 1.56 ppm
- MIC [3, 13]: 0.78 ppm

SMILES: CC(=O)c1ccc2c(c1)[I+]c1cc(C(C)=O)ccc1O2 [1(a), 3,7-Diacetylphenoxiodinin-5-ium chloride dihydrate]
- MIC ([1]; read-out: Minimum inhibitory concentration, Sa): 5 µg/mL
- MIC [4]: 10 µg/mL
- Minimum inhibitory concentration, Ec ([5]; dihydrate): 50 PPM
- Minimum inhibitory concentration, Pm ([6]; dihydrate): 100 PPM
- Minimum inhibitory concentration, Bs ([7]; dihydrate): 5 PPM
- MIC [8]: 500 µg/mL
- Minimum inhibitory concentration, Tm ([9]; dihydrate): 500 PPM
- MBC (minimum bactericidal concentration) [3, 15]: 0.98 ppm
- MIC [3, 15]: 0.49 ppm
- Acid Inhibition (minimum concentration which prevented acid formation) ([10]; dihydrate): 0.12 ppm

SMILES: CC(=O)c1ccc2c(c1)[I+]c1cc(C(C)=O)ccc1O2 [1(b), 3,7-diacetylphenoxiodinin-5-ium bromide monohydrate]
- Minimum inhibitory concentration, St ([4]; monohydrate): 10 PPM
- Minimum inhibitory concentration, Ec ([5]; monohydrate): 50 PPM
- Minimum inhibitory concentration, Pm ([6]; monohydrate): 500 PPM
- Minimum inhibitory concentration, Bs ([7]; monohydrate): 5 PPM
- Minimum inhibitory concentration, Tm ([9]; monohydrate): 100 PPM
- MBC (minimum bactericidal concentration) [3, 16]: 0.5 ppm
- MIC [3, 16]: 0.1 ppm
- Acid Inhibition (minimum concentration which prevented acid formation) ([10]; monohydrate): 0.1 ppm

SMILES: CC(=O)c1ccc2c(c1)[I+]c1cc(C(C)=O)ccc1O2 [1(c), 3,7-diacetylphenoxiodinin-5-ium bisulfite hemihydrate]
- Minimum inhibitory concentration, St ([4]; hemihydrate): 5 PPM
- Minimum inhibitory concentration, Ec ([5]; hemihydrate): 10 PPM
- Minimum inhibitory concentration, Pm ([6]; hemihydrate): 50 PPM
- Minimum inhibitory concentration, Bs ([7]; hemihydrate): 1.0 PPM
- Minimum inhibitory concentration, Tm ([9]; hemihydrate): 100 PPM
- MBC (minimum bactericidal concentration) [3, 17]: 8.0 ppm
- MIC [3, 17]: 1.0 ppm
- Acid Inhibition (minimum concentration which prevented acid formation) ([10]; hemihydrate): 0.5 ppm

SMILES: CCC(=O)c1ccc2c(c1)[I+]c1cc(C(=O)CC)ccc1O2 [2(a), 3,7-Dipropionylphenoxiodinin-5-ium chloride hemihydrate]
- Minimum inhibitory concentration, Sa ([1]; hemihydrate): 10 PPM
- MIC [4]: 50 µg/mL
- MIC [5]: 50 µg/mL
- MIC [6]: 100 µg/mL
- Minimum inhibitory concentration, Bs ([7]; hemihydrate): 50 PPM
- MIC ([9]; read-out: Minimum inhibitory concentration, Tm): 500 µg/mL
- MBC (minimum bactericidal concentration) [3, 17]: 0.5 ppm
- MIC [3, 17]: 2.0 ppm
- Acid Inhibition (minimum concentration which prevented acid formation) ([10]; hemihydrate): 0.1 ppm

SMILES: CCC(=O)c1ccc2c(c1)[I+]c1cc(C(=O)CC)ccc1O2 [2(b)]
- Minimum inhibitory concentration, Sa [1]: 500 PPM
- Minimum inhibitory concentration, Bs [7]: 500 PPM
- MBC (minimum bactericidal concentration) [3, 13]: 31 ppm
- MIC [3, 13]: 125 ppm
- Acid Inhibition (minimum concentration which prevented acid formation) [10]: 7.8 ppm

SMILES: COC(=O)c1ccc2c(c1)[I+]c1cc(C(=O)O)ccc1O2 [3(a), 3-Carboxy-7-(methoxycarbonyl)phenoxiodinin-5-ium chloride monohydrate]
- Minimum inhibitory concentration, Sa ([1]; monohydrate): 5 PPM
- MIC [4]: 10 µg/mL
- MIC [5]: 10 µg/mL
- MIC [6]: 10 µg/mL
- MIC ([7]; read-out: Minimum inhibitory concentration, Bs): 1 µg/mL
- Minimum inhibitory concentration, Sm ([2]; monohydrate): 500 PPM
- MIC [11]: 500 µg/mL
- MIC [8]: 50 µg/mL
- Minimum inhibitory concentration, Tm ([9]; monohydrate): 500 PPM
- MIC [12]: 500 µg/mL
- MBC [3, 14]: 2 µg/mL
- MIC ([3]; Streptococcus mutans, ATCC10449, Streptococcus mutans ATCC 10449, Todd Hewitt broth, read-out: MIC): 2 µg/mL
- minimal effective concentration ([10]; Streptococcus mutans, 48 h, read-out: Acid Inhibition (minimum concentration which prevented acid formation)): 1 µg/mL

Reference: patent US4440943A, “Phenoxiodinin-5-ium antimicrobial compounds” (The Dow Chemical Company, priority 1982, dated 1984)
